Test results taken from ChEMBL document CHEMBL6121054, “Discovery of Metabolic Reprogramming 2-Quinolones as Effective Antimicrobials for MRSA-Infected Wound Therapy” (J Med Chem, 2025).
In brackets after ≈: the same amount, converted by molar mass. Activity calls are given as the source filed them. The calls are words filed in the database; no cut-off is given here.

Legend:
Staphylococcus aureus [1] = test: Bactericidal activity against methicillin-resistant Staphylococcus aureus USA300 at >= 1 ug/ml measured upto 24 hrs by time-kill assay relative to control; type: functional; conditions: dose >= 1 µg/ml
Streptococcus suis [2] = test: Antibacterial activity against Streptococcus suis ZY05719 incubated for 16 to 24 hrs by broth microdilution method; type: functional; conditions: time 16-24 hrs
Staphylococcus aureus [3] = test: Antibacterial activity against methicillin-resistant Staphylococcus aureus MRSA 2 incubated for 16 to 24 hrs by broth microdilution method; type: functional; conditions: time 16-24 hrs
Listeria monocytogenes [4] = test: Bactericidal activity against Listeria monocytogenes EGD; type: functional
Staphylococcus aureus [5] = test: Antibacterial activity against methicillin-resistant Staphylococcus aureus infected in BALB/c mouse wound model assessed as decrease in wound diameter at 20 to 80 mg/kg administered topically on days 0, 3 and 6 measured after 12 days; type: functional, organism-based; conditions: dose 20-80 mg/kg, route top, time 12.0 day
Staphylococcus aureus [6] = test: Impairment of antioxidant defense system in Staphylococcus aureus USA300 upto 0.25 ug/ml by WST-8 assay; type: functional, organism-based; conditions: dose <= 0.25 µg/ml
Listeria monocytogenes [7] = test: Bactericidal activity against Listeria monocytogenes EGD measured upto 24 hrs by time-kill assay; type: functional, organism-based
Staphylococcus aureus [8] = test: Effect on lysine degradation in Staphylococcus aureus USA300 at 4 times MIC by KEGG analysis; type: functional, organism-based
Staphylococcus aureus [9] = test: Antibacterial activity against methicillin-resistant Staphylococcus aureus infected in BALB/c mouse wound model assessed as decrease in CD68 expression in skin tissue at 20 to 80 mg/kg administered topically on days 0, 3 and 6 measured after 12 days by IHC analysis; type: functional, organism-based; conditions: dose 20-80 mg/kg, route top, time 12.0 day
Klebsiella pneumoniae [10] = test: Antibacterial activity against Klebsiella pneumoniae ATCC 43816 incubated for 16 to 24 hrs by broth microdilution method; type: functional; conditions: time 16-24 hrs
Staphylococcus aureus [11] = test: Inhibition of biofilm formation in Staphylococcus aureus USA300 assessed as decrease in green fluorescence at 0.06 to 0.13 ug/ml incubated for 24 hrs by SYTO 9 dye based CLSM analysis; type: functional, organism-based; conditions: dose 0.06-0.13 µg/ml
Staphylococcus aureus [12] = test: Disruption of cell membrane integrity in Staphylococcus aureus USA300 assessed as protein leakage at 0.25 ug/ml incubated for 6 hrs MIC by SDS-PAGE analysis; type: functional, organism-based; conditions: dose 0.25 µg/ml
Staphylococcus aureus [13] = test: Antibacterial activity against methicillin-resistant Staphylococcus aureus infected in BALB/c mouse wound model assessed as reduction in bacterial load at 20 to 80 mg/kg administered topically on days 0, 3 and 6 measured after 12 days; type: functional, organism-based; conditions: dose 20-80 mg/kg, route top, time 12.0 day
DNA gyrase = DNA gyrase (Staphylococcus aureus, UniProt P0A0K8+P20831); test: Inhibition of Staphylococcus aureus gyrase; type: protein-complex assay
Staphylococcus aureus [14] = test: Bactericidal activity against methicillin-resistant Staphylococcus aureus USA300 at 4 times MIC measured for 12 to 24 hrs by time-kill assay; type: functional, organism-based; conditions: time 12-24 hrs
[15] = Hemolytic activity in rabbit RBCs upto 8 ug/ml incubated for 1 hr; type: toxicity, cell-based, Oryctolagus cuniculus; conditions: erythrocyte, dose < 8 µg/ml
Staphylococcus aureus [16] = test: Antibacterial activity against methicillin-resistant Staphylococcus aureus infected in BALB/c mouse wound model assessed as angiogenesis in skin tissue by measuring increase in CD31 expression at 20 to 80 mg/kg administered topically on days 0, 3 and 6 measured after 12 days by IHC analysis; type: functional, organism-based; conditions: dose 20-80 mg/kg, route top, time 12.0 day
Staphylococcus aureus [17] = test: Antibacterial activity against Staphylococcus aureus ATCC 29213 incubated for 16 to 24 hrs by broth microdilution method; type: functional; conditions: time 16-24 hrs
Streptococcus suis [18] = test: Bactericidal activity against Streptococcus suis ZY05719; type: functional
Staphylococcus aureus [19] = test: Inhibition of resistance development in Staphylococcus aureus USA300 incubated for 24 hrs measured after 14 passages by broth microdilution method; type: functional, organism-based
Listeria monocytogenes [20] = test: Antibacterial activity against Listeria monocytogenes EGD incubated for 16 to 24 hrs by broth microdilution method; type: functional; conditions: time 16-24 hrs
Staphylococcus aureus [21] = test: Bactericidal activity against Staphylococcus aureus NCTC 8325-4; type: functional
A549 [22] = test: Reversal of Staphylococcus aureus USA300-induced cytotoxicity in human A549 cells infected with bacteria assessed as reduction in number of dead cells at 4 to 8 ug/ml preincubated with compound followed by […] infection for 5 hrs by Calcein AM/Ethidium homodimer-1 dye based analysis; type: functional, cell-based; conditions: dose 4-8 µg/ml
Staphylococcus aureus [23] = test: Induction of H2O2 accumulation in Staphylococcus aureus USA300 upto 0.25 ug/ml incubated for 5 hrs; type: functional, organism-based; conditions: dose <= 0.25 µg/ml
Klebsiella pneumoniae [24] = test: Bactericidal activity against Klebsiella pneumoniae 13b5; type: functional
Staphylococcus aureus [25] = test: Effect on pyrimidine metabolism in Staphylococcus aureus USA300 at 4 times MIC by KEGG analysis; type: functional, organism-based
Staphylococcus aureus [26] = test: Antibacterial activity against Staphylococcus aureus USA300 assessed as acceleration of TCA cycle measured by increase in mqo mRNA level upto 0.25 ug/ml incubated for 6 hrs by RT-PCR analysis; type: functional, organism-based; conditions: dose <= 0.25 µg/ml
Staphylococcus aureus [27] = test: Induction of ROS accumulation in Staphylococcus aureus USA300 upto 0.25 ug/ml incubated for 1 hr by DCFH-DA dye based analysis; type: functional, organism-based; conditions: dose <= 0.25 µg/ml
Klebsiella pneumoniae [28] = test: Bactericidal activity against Klebsiella pneumoniae ATCC 43816; type: functional
Staphylococcus aureus [29] = test: Antibacterial activity against methicillin-resistant Staphylococcus aureus infected in BALB/c mouse wound model assessed as organised collagen fibers in skin tissue at 20 to 80 mg/kg administered topically on days 0, 3 and 6 measured for 6 to 12 days by Masson's trichome staining based analysis; type: functional, organism-based; conditions: dose 20-80 mg/kg, route top, time 6-12 day
Staphylococcus aureus [30] = test: Induction of cell permeability in Staphylococcus aureus USA300 upto 0.13 uM by PI dye based analysis; type: functional, organism-based
Escherichia coli = test: Antibacterial activity against Escherichia coli ATCC 25922 incubated for 16 to 24 hrs by broth microdilution method; type: functional; conditions: time 16-24 hrs
Streptococcus suis [31] = test: Bactericidal activity against Streptococcus suis ZY05719 measured upto 24 hrs by time-kill assay; type: functional, organism-based
Acinetobacter baumannii = test: Antibacterial activity against Acinetobacter baumannii ATCC 19606 incubated for 16 to 24 hrs by broth microdilution method; type: functional; conditions: time 16-24 hrs
A549 [32] = test: Cytotoxicity against human A549 cells assessed as cell viability upto 8 ug/ml incubated for 6 hrs by LDH assay; type: toxicity, cell-based; conditions: a549, 6 h, dose < 8 µg/ml
A549 [33] = test: Reversal of Staphylococcus aureus USA300-induced cytotoxicity in human A549 cells infected with bacteria assessed as cell viability upto 8 ug/ml preincubated with compound followed by […] infection for 5 hrs by LDH assay; type: functional, cell-based; conditions: dose <= 8.0 µg/ml
Staphylococcus aureus [34] = test: Bactericidal activity against Staphylococcus aureus DU1090; type: functional
Staphylococcus aureus [35] = test: Antibacterial activity against methicillin-resistant Staphylococcus aureus infected in BALB/c mouse wound model assessed as neovascularization in skin tissue at 20 to 80 mg/kg administered topically on days 0, 3 and 6 measured for 6 to 12 days by H and E staining based analysis; type: functional, organism-based; conditions: dose 20-80 mg/kg, route top, time 6-12 day
Staphylococcus aureus [36] = test: Antibacterial activity against methicillin-resistant Staphylococcus aureus infected in BALB/c mouse wound model assessed as decrease in wound area at 20 to 80 mg/kg administered topically on days 0, 3 and 6 measured after 12 days; type: functional, organism-based; conditions: dose 20-80 mg/kg, route top, time 12.0 day
Staphylococcus aureus [37] = test: Antibacterial activity against Staphylococcus aureus USA300 assessed as acceleration of TCA cycle measured by decrease in NAD+/NADH ratio upto 0.25 ug/ml incubated for 5 hrs; type: functional, organism-based; conditions: dose <= 0.25 µg/ml
Staphylococcus aureus [38] = test: Bactericidal activity against methicillin-resistant Staphylococcus aureus MRSA 1; type: functional

Chain of DNA gyrase (P0A0K8 whole entry): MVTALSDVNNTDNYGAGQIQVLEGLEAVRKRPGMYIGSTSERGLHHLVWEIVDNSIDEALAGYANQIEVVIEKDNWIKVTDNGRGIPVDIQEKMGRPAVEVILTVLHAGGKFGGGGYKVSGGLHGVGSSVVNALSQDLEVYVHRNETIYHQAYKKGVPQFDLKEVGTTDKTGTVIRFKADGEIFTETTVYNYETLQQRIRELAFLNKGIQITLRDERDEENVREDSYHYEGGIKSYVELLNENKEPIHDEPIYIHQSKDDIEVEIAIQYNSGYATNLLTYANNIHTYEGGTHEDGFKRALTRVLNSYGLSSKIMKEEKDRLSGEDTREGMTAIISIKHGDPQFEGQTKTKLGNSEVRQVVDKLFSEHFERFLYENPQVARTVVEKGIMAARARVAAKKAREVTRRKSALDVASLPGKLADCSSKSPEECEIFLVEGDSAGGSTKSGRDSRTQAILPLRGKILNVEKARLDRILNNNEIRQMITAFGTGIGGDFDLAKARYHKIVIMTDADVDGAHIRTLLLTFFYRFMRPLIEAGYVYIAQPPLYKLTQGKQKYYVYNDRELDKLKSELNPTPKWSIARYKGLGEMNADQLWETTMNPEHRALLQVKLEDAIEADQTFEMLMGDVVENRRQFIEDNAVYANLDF
Chain of DNA gyrase (P20831 whole entry): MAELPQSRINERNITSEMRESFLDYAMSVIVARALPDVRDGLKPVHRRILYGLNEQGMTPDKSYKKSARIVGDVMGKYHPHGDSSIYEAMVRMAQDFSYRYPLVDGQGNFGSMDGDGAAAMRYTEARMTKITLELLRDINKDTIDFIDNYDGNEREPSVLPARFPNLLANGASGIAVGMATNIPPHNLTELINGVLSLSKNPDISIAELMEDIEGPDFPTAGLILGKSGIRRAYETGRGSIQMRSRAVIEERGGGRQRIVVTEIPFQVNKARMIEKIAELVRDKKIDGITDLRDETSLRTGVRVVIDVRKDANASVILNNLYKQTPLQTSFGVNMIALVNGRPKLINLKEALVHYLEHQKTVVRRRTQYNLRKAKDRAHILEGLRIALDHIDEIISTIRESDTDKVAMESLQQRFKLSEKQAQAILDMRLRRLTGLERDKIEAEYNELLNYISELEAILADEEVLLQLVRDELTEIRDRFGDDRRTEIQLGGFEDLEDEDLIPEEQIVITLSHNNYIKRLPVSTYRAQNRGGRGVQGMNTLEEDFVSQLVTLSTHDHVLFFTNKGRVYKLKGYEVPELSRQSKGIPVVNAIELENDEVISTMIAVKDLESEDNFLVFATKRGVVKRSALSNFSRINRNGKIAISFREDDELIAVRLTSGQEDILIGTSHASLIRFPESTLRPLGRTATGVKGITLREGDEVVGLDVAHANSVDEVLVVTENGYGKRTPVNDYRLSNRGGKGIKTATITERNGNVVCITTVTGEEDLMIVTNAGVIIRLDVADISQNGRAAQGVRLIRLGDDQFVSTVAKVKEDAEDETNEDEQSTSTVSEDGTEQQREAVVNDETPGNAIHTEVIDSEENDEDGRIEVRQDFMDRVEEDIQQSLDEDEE

CCn1c(=O)c(C(=O)Nc2nnc(-c3ccc(C)cn3)s2)c(O)c2ccccc21
Activity (Staphylococcus aureus [1]): ~100% | MIC (Streptococcus suis [2]): 0.04 mg/L (≈ 0.0982 µM) | MIC (Staphylococcus aureus [3]): 0.02 mg/L (≈ 0.0491 µM) | MBC (Listeria monocytogenes [4]): > 0.25 mg/L | Activity (Staphylococcus aureus [5]): Active | Activity (Staphylococcus aureus [6]): Active | Activity (Listeria monocytogenes [7]): Active; Bacteria Were Suppressed Or Completely Eliminated | Activity (Staphylococcus aureus [8]): Active | Activity (Staphylococcus aureus [9]): Active | MIC (Klebsiella pneumoniae [10]): > 512 mg/L | inhibition (Staphylococcus aureus [11]): Active | Activity (Staphylococcus aureus [12]): Active | Activity (Staphylococcus aureus [13]): Active | IC50 (DNA gyrase): 1.19 µM | Activity (Staphylococcus aureus [14]): Active | Activity [15]: Non-toxic | Activity (Staphylococcus aureus [16]): Active | MIC (Staphylococcus aureus [17]): 0.03 mg/L (≈ 0.0736 µM) | MBC (Streptococcus suis [18]): 0.1 mg/L (≈ 0.245 µM) | inhibition (Staphylococcus aureus [19]): Active | MIC (Listeria monocytogenes [20]): 0.02 mg/L (≈ 0.0491 µM) | MBC (Staphylococcus aureus [21]): 0.09 mg/L (≈ 0.221 µM) | Activity (A549 [22]): Active | Activity (Staphylococcus aureus [23]): Active | MBC (Klebsiella pneumoniae [24]): > 512 mg/L | Activity (Staphylococcus aureus [25]): Active | Activity (Staphylococcus aureus [26]): Active | Activity (Staphylococcus aureus [27]): Active | MBC (Klebsiella pneumoniae [28]): > 512 mg/L | Activity (Staphylococcus aureus [29]): Active | Activity (Staphylococcus aureus [30]): Active | MIC (Escherichia coli): > 512 mg/L | Activity (Streptococcus suis [31]): Active; Bacteria Were Suppressed Or Completely Eliminated | MIC (Acinetobacter baumannii): > 512 mg/L | Activity (A549 [32]): Non-toxic | Activity (A549 [33]): Active | MBC (Staphylococcus aureus [34]): 0.23 mg/L (≈ 0.564 µM) | Activity (Staphylococcus aureus [35]): Active | Activity (Staphylococcus aureus [36]): Active | Activity (Staphylococcus aureus [37]): Active | MBC (Staphylococcus aureus [38]): 0.05 mg/L (≈ 0.123 µM)
